A melting point compilation (Tetko et al.; mined from patent text by program, amines drawn as free bases though some values may be those of a salt)

Compound | melting point [°C]
FC(F)(F)c1ccc(-c2cc(Oc3ccc4cccnc4c3)ncn2)c(NCC2CCCCC2)c1 | 137 to 138
CC(=O)OCc1cn(-c2ccccc2)nc1OCc1ccccc1 | 74 to 75
CCOC(=O)C(=O)Nc1cc(=O)c2ccccc2o1 | 167 to 169
COc1cc(OC)cc(-n2c(-c3ccccc3)cc(=O)c(C)c2-c2ccccc2)c1 | 232 to 236
O=C(C=Cc1cc(F)cc(F)c1)c1cnc2sc3c(n12)CCCCC3 | 207 to 209
CC1CC2Oc3ccc(Cl)cc3C(=O)N2O1 (centres undefined) | 147 to 151
Fc1ccc(-c2nc[nH]c2-c2ccc(F)cc2)cc1 | 234 to 236
C[C@@H](N1CCN(c2nnn(Cc3ccc(C(F)(F)F)cc3)n2)CC1)[C@](O)(Cn1cncn1)c1ccc(F)cc1F | 71 to 72
Cc1oc(-c2ccccc2)nc1COc1cccc(CCl)c1 | 79 to 80
Cn1cc(C2CCC(=O)CC2)c2cc(C#N)ccc21 | 150 to 152
Cc1ccc2ccccc2c1C1OC(=O)NC1=O (centres undefined) | 147 to 150
COc1ccc(S(=O)(=O)Nc2c(/C=C/c3ccncc3)cccc2OC)cc1 | 205 to 206
Cc1nccc(-c2ccccc2)c1/C=C/C=O | 98 to 99
CC(C)(C)OC(=O)NCc1cc(N)ccc1Cl | 75 to 77
Cc1noc(C(=O)NC(C)C)c1C(=O)O | 86 to 92
CN(C)Cc1nnc2n1-c1ccc(Cl)cc1C(c1ccccc1)=NC2 | 168 to 171
O=C1c2ccccc2C(=O)N1CCOc1nc(-c2ccccc2)c2cc(Cl)ccc2n1 | 155
C=C1CC(COc2ccc3ccc(=O)oc3c2)(c2ccccc2)OC1=O (centres undefined) | 105 to 106
CN(C(N)=O)C1Nc2ccc(Cl)cc2Oc2ccccc21 (centres undefined) | 146 to 149
COC(=O)c1c(Br)c(F)cc2nn(C)cc12 | 146 to 147
COc1ccc(CN(CCN(C)C)c2cccc(/C=C/C(=O)O)n2)cc1 | 75 to 81
CCCOc1cc2c(cc1-c1cc(-c3ccc(C(=O)O)cc3)ccc1-c1ccccc1)C(C)(C)CCC2(C)C | 234
Cc1cc(Cl)nc2ccc(Br)cc12 | 139 to 140
NC(=O)N(O)Cc1ccc2c(c1)CCN2CCCc1ccccc1 | 94 to 94.5
Nc1ccc2sc(Cl)nc2c1 | 146 to 149
COc1ccc(S(N)(=O)=O)cc1C(=O)NC1CCN(CC2CC2)C1 (centres undefined) | 150

Compound | melting point [°C]
Cc1cc(Oc2ccc(C(F)(F)F)cc2[N+](=O)[O-])n[nH]1 | 89 to 91
CC(C)c1ccc(N(Cc2ccc(N(C)C)cc2)C(=O)C2CCOc3c(C#N)cccc32)cc1 (centres undefined) | 179
Cc1cc(C2(C(F)(F)F)CC(c3ccc(F)cc3)=NO2)ccc1NC(=O)c1cccc(N)c1C(=O)NC(C)C (centres undefined) | 122 to 124
O=[N+]([O-])c1c(Cl)cccc1NCC(O)CO (centres undefined) | 126
CC1CC=NN1C(=O)c1cccnc1 (single isomer, unassigned; (-)) | 67 to 69
COC(=O)C(=NO)c1cccc(Oc2ccccc2)c1 | 122 to 123
CCn1c(=O)c2[nH]c(/C=C/c3cc(C)ccc3C)nc2n(CC)c1=O | 282
Cc1ccc2c(c1)c(=O)oc(=O)n2Cc1ccccc1 | 150
COC(=O)C(Sc1ccc(Cl)cc1)c1ccc(Oc2ccccc2)cc1 (centres undefined) | 66 to 67.5
COc1ccc(-c2c(C#N)nn(-c3c(Cl)cc(C(F)(F)F)cc3Cl)c2N)cc1 | 222
NS(=O)c1ccccc1 (centres undefined) | 112 to 115
CCc1cc(=O)c2nc(OCC[Si](C)(C)C)ccc2[nH]1 | 193
CCOc1cc2ncc(C#N)c(Nc3ccc4c(c3)NCC4)c2cc1OCC | 121 to 124
[N-]=[N+]=Nc1cc2ccccc2oc1=O | 108 to 112
COC(=O)c1ccc(Cl)cc1NC(=O)Cc1cccc(OC)c1 | 144 to 146
O=c1[nH]c(=O)n(C2OC(CO)C(O)C2F)cc1C=CBr (centres undefined) | 80 to 83
CCOc1ccccc1-c1nc2c(C)nn(C)c2c(=O)[nH]1 | 201 to 204
CCOC(=O)C1(NC(=O)CC)Cc2cccc3c2N(CCC3)C1=O (centres undefined) | 136 to 140
COc1cc(OC)cc(-c2ncn(-c3cc(OC)c(OC)c(OC)c3)c2-c2ccc(OC)c(O)c2)c1 | 110 to 111
Cc1ccn2cc(CC(=O)N3CCN(c4ccc5[nH]c(=O)ccc5c4)CC3)nc2c1 | > 250
Cc1c(-c2ccc(O)cc2)sc(C=NO)c1-c1ccc(O)cc1 | 233 to 234
COC(=O)CCc1cc(C(=O)c2ccccc2Cl)c(NC(=O)CBr)s1 | 104 to 106
CC(C)(C)C(NC(=O)c1cccc(F)c1)Nc1c(Nc2cccnc2)c(=O)c1=O (centres undefined) | 231 to 232
N#CC1Sc2ccccc2-c2ccccc21 (centres undefined) | 114 to 116
O=C(C=c1sc2n(c1=O)Cc1ccccc1N=2)NCc1ccccc1 | 258 to 259
O=c1c2c(Cl)cc(N3CCNCC3)cc2n(Cc2ccccc2)c(=O)n1Cc1cccc(I)c1 | 98 to 104

Compound | melting point [°C]
COc1ccc(-c2cn(CCCC#N)c3c(OC)ccc(OC)c3c2=O)cc1 | 126 to 127
O=c1[nH]c2cc(Cl)ccc2n1C1CCN(Cc2cncc(-c3ccccc3)c2)CC1 | 229 to 231
CCOC(=O)C1=C(c2ccc(-n3c(C)nc4cnccc43)cc2)NC(=O)NC1c1ccccc1Cl (centres undefined) | > 300
C(=CCN(C1CCCCC1)C1CCCCC1)CN(C1CCCCC1)C1CCCCC1 | 136 to 138
O=C(CCC1CCCCC1)NC1N=C(c2ccccc2)c2ccccc2N2CCN=C12 (centres undefined) | 202 to 208
CCC1SCCCN1C(=S)Nc1cccc(Cl)c1 (centres undefined) | 69 to 73
CCCc1c(OCCCOc2cc(NC(=O)C(=O)O)c(C(F)(F)F)cc2Cl)ccc(C(C)=O)c1O | 173 to 174
NC1C(O)C(CO)OC1n1ccc(=O)[nH]c1=O (centres undefined) | 197 to 199
CCOC(=O)c1c(N2CCN(c3ccccc3)CC2)n[nH]c1C | 137 to 138
COc1cccc2c1CC(C(=O)O)N2S(=O)(=O)c1ccc(-c2ccc(F)cc2Cl)cc1 (centres undefined) | 137 to 138
CCC1COC(c2ccc(C#N)c(F)c2)OC1 (centres undefined) | 49
O=C1C2CCCC2=Nc2ccccc2N1Cc1ccc(F)cc1 (centres undefined) | 134 to 137
Oc1cc2ccc(Cc3ccccc3)cc2cc1O | 177 to 187
CCCCOc1nc(=O)n(C(=O)NC)s1 | 108
O=[N+]([O-])c1ccc2c(c1)CN(Cc1ccccc1)CC2 | 85 to 86
Cc1[nH]c(=O)c(C#N)cc1-c1ccccc1OCCCC(=O)O | 218 to 220
COc1cccc(OC2CN([C@H]3CC[C@@H](c4cc5ccccc5[nH]4)CC3)C2)c1 | 126 to 127
CC(C)(C)OC(=O)NC1(c2ccccc2)CCN(CCC2(c3ccc(F)c(F)c3)CN(C(=O)c3ccccc3)CCO2)CC1 (centres undefined) | 107
CC(O)C(CCCc1ccccc1)n1ncc2c(=O)[nH]c(Cc3ccc(Cl)cc3)nc21 (centres undefined) | 101
O=C(O)c1ccc(CCCC2SCC(=O)N2CC#CC2(O)CCCCC2)cc1 (centres undefined) | 112 to 115
COc1ccc(C(=O)C(CCc2cccc(OC)c2)c2ccccc2)cc1 (centres undefined) | 79 to 85
O=C(CC1c2ccccc2C(=O)N1c1ccc(Cl)cn1)N1CCCCC1 (centres undefined) | 165 to 166
COC(=O)CCCC(C)(C)c1cc(Cl)c(O)c(Cl)c1 | 101 to 103
COc1cn(-c2ccc(-n3cccn3)cc2F)nc(-c2ccnn2-c2ccccc2)c1=O | 214 to 216
c1ccc(CSc2nc3ccccc3[nH]2)cc1 | 185 to 186
CC12CCC(OC(=O)COc3ccccc3)CC1=CCC1C2CCC2(C)C(=NO)CCC12 (centres undefined) | 118 to 122

Compound | melting point [°C]
NC(=O)c1csc(Cl)c1 | 138 to 139
O=C(NCc1cccnc1)c1ccc2n1Cc1ccccc1N(C(=O)c1ccccc1)C2 | 197
Cn1ncc2ccc(OCCCCl)cc2c1=O | 252 to 253
CCn1nc(O)nc1Cl | 108 to 110
Cc1cc(-n2nc(C(F)(F)F)cc2-c2ccc(S(C)(=O)=O)cc2)ccc1Br | 127 to 129
COc1ccc(C2=NC(C)(C)C(c3cccs3)C2)cc1 (centres undefined) | 84
CCOC(=O)C1=C(CCl)NC(C)=C(C(=O)OC)C1c1cccc(C(F)(F)F)c1 (centres undefined) | 115 to 116
COc1ccc(C2=NN(C)C(=O)CC2)cc1 | 133 to 135
CCc1nc(-c2ccc(OCCCc3cccnc3)cc2)no1 | 63 to 64
CC(C)(C)n1nc(-c2ccccc2)c(C(N)=O)c1N | 177 to 178
NC1(CC(=O)O)CCCCC1 | 200 to 204
ClC(=NNc1ccc(Br)cc1)c1ccc(Cl)cc1 | 142 to 144
CCC(=O)N1CCSc2cccc(Cl)c2C1 | 55 to 57
O=C(O)c1cc2c(c(O)c1Br)OCO2 | 196 to 205
CCC1=C(C(=O)OC)C(c2ccc(C)cc2)C(C#N)=C(CC(C)(C)C)N1 (centres undefined) | 126
CCOc1nc(=O)n(C(=O)NCCCl)s1 | 82
OC(c1cc(-c2ccc(F)cc2)c(-c2ccc(F)cc2)[nH]1)C(F)(F)F (centres undefined) | 121 to 122
Oc1ccccc1OCCOCCOc1ccccc1O | 85
Cc1cc(Cl)nn2c(-c3ccnc4c3ccn4S(=O)(=O)c3ccccc3)c(-c3ccc(F)cc3)nc12 | 226 to 228
CN=c1nc(N)nc2sc3cc(OC)ccc3n12 | 208 to 209
COC(=N)c1ccc(-c2ccccc2[N+](=O)[O-])o1 | 107 to 108
CN(C)CCCNC(=O)c1ccc(-c2ccc3nnn(Cc4ccc5ncccc5c4)c3n2)cc1 | 132 to 135
COc1ccc(CSc2ccncc2)c2c1OC(C)(C)C2 | 109 to 113
CCOC(=O)c1cc(C)cc(-c2ccc(N(C)C)cc2)n1 | 143 to 144
COCCc1nc2c(N)nc3ccccc3c2n1CCCCCS(=O)(=O)c1ccccc1 | 172 to 175
CC(Oc1ccc(C#N)cc1)c1ccnc2ncnn12 (centres undefined) | 163 to 164
